Biological target: T1, K-Ras G12C (Homo sapiens, UniProt P01116, G12C)
T1 construct: This protein contained 188 amino acids in total, including an N-terminal 6-Histidine tag; made in house; host or cells: E. coli BL21
Assay: CAF assay (% CAF; method in Example 7, not in this part)
Format: binding
Settings: for % CAF 10 uM @ 60 min: Table 2a; for % CAF @ 10 uM, 1h: Table 3

| Structure (SMILES) | % CAF @ 10 μM, 1 h (10 μM, 1 h, Table 4) [%] | % CAF 10 uM @ 60 min [%] | % CAF @ 10 uM, 1h (1 h) [%] |
| --- | --- | --- | --- |
| C=CC(=O)N1CCN(c2nc(=O)n3c4c(c(-c5ccc(F)cc5F)c(C(F)(F)F)cc24)SC[C@@H]3CN2CCN(CC(F)F)CC2)[C@@H](C)C1 [Example 19, (3S)-7-((S)-4-acryloyl-2-methylpiperazin-1-yl)-3-((4-(2,2-difluoroethyl)piperazin-1-yl)methyl)-10-(2,4-difluorophenyl)-9-(trifluoromethyl)-2H-[1,4]thiazino[2,3,4-ij]quinazolin-5(3H)-one] | 96 | – | – |
| C=CC(=O)N1CCN(c2nc(=O)n3c4c(c(-c5cc(C6CC6)ccc5F)c(Cl)cc24)SCC3)[C@@H](C)C1 [Example 62a, 7-((S)-4-acryloyl-2-methylpiperazin-1-yl)-9-chloro-10-(5-cyclopropyl-2-fluorophenyl)-2,3-dihydro-5H-[1,4]thiazino[2,3,4-ij]quinazolin-5-one] | – | 67 | – |
| C[C@H]1CN(C(=O)/C=C/C(F)F)CCN1c1nc(=O)n2c3c(c(-c4cc(F)cc(Cl)c4)c(Cl)cc13)SCC2 [Example 63, (S,E)-9-chloro-10-(3-chloro-5-fluorophenyl)-7-(4-(4,4-difluorobut-2-enoyl)-2-methylpiperazin-1-yl)-2,3-dihydro-5H-[1,4]thiazino[2,3,4-ij]quinazolin-5-one] | – | 75 | 67 |
| C=C(F)C(=O)N1CCN(c2nc(=O)n3c4c(c(-c5cc(F)cc(Cl)c5)c(Cl)cc24)SCC3)[C@@H](C)C1 [Example 64, (S)-9-chloro-10-(3-chloro-5-fluorophenyl)-7-(4-(2-fluoroacryloyl)-2-methylpiperazin-1-yl)-2,3-dihydro-5H-[1,4]thiazino[2,3,4-ij]quinazolin-5-one] | – | 3 | 75 |
| C[C@H]1CN(C(=O)/C=C/C(F)(F)F)CCN1c1nc(=O)n2c3c(c(-c4cc(F)cc(Cl)c4)c(Cl)cc13)SCC2 [Example 65] | – | 70 | 3 |
| C=CC(=O)N1CCN(c2nc(=O)n3c4c(c(-c5cc(F)cc(F)c5)c(Cl)cc24)SCC3)[C@@H](C)C1 [Example 66, (S)-7-(4-acryloyl-2-methylpiperazin-1-yl)-9-chloro-10-(3,5-difluorophenyl)-2,3-dihydro-5H-[1,4]thiazino[2,3,4-ij]quinazolin-5-one] | – | 91 | 70 |
| C[C@H]1CN(C(=O)/C=C/C(F)F)CCN1c1nc(=O)n2c3c(c(-c4cc(F)cc(F)c4)c(Cl)cc13)SCC2 [Example 67, (S,E)-9-chloro-7-(4-(4,4-difluorobut-2-enoyl)-2-methylpiperazin-1-yl)-10-(3,5-difluorophenyl)-2,3-dihydro-5H-[1,4]thiazino[2,3,4-ij]quinazolin-5-one] | – | 87 | 91 |
| C=CC(=O)N1CCN(c2nc(=O)n3c4c(c(-c5ccc(F)cc5)c(Cl)cc24)SC[C@H]3CC2CCN(CC(F)F)CC2)[C@@H](C)C1 [Example 68, (R)-7-((S)-4-acryloyl-2-methylpiperazin-1-yl)-9-chloro-3-((1-(2,2-difluoroethyl)piperidin-4-yl)methyl)-10-(4-fluorophenyl)-2,3-dihydro-5H-[1,4]thiazino[2,3,4-ij]quinazolin-5-one] | – | – | 87 |
| C=CC(=O)N1CCN(c2nc(=O)n3c4c(c(-c5ccc(F)cc5F)c(Cl)cc24)SC[C@H]3CC2CCN(CC(F)F)CC2)[C@@H](C)C1 [Example 69, (3R)-7-((S)-4-acryloyl-2-methylpiperazin-1-yl)-9-chloro-3-((1-(2,2-difluoroethyl)piperidin-4-yl)methyl)-10-(2,4-difluorophenyl)-2,3-dihydro-5H-[1,4]thiazino[2,3,4-ij]quinazolin-5-one] | – | – | 96 |
| C=CC(=O)N1CCN(c2nc(=O)n3c4c(c(-c5cccc6ccncc56)c(Cl)cc24)SCC3)[C@@H](C)C1 [Example 71, 7-((S)-4-acryloyl-2-methylpiperazin-1-yl)-9-chloro-10-(isoquinolin-8-yl)-2,3-dihydro-5H-[1,4]thiazino[2,3,4-ij]quinazolin-5-one] | – | – | 87.8 |
| C=CC(=O)N1C2CN(C(C)=O)CC1CN(c1nc(=O)n3c4c(c(-c5ccc(F)cc5F)c(Cl)cc14)SCC3)C2 [Example 72] | – | – | 80.5 |
| C=CC(=O)N1CCN(c2nc(=O)n3c4c(c(-c5cc(F)cc(Cl)c5)c(Cl)cc24)SCC3)[C@@H](C)C1 [Example 73, (S)-7-(4-acryloyl-2-methylpiperazin-1-yl)-9-chloro-10-(3-chloro-5-fluorophenyl)-2,3-dihydro-5H-[1,4]thiazino[2,3,4-ij]quinazolin-5-one] | – | – | 73 |
| C=CC(=O)N1CCN(c2nc(=O)n3c4c(c(-c5cccc(F)c5F)c(Cl)cc24)SCC3)[C@@H](C)C1 [Example 74, 7-((S)-4-acryloyl-2-methylpiperazin-1-yl)-9-chloro-10-(2,3-difluorophenyl)-2,3-dihydro-5H-[1,4]thiazino[2,3,4-ij]quinazolin-5-one] | – | – | 95.6 |
| C=CC(=O)N1CCN(c2nc(=O)n3c4c(c(-c5ccc(F)cc5F)c(Cl)cc24)SC(C)(C)C3)[C@@H](C)C1 [Example 75, 7-((S)-4-acryloyl-2-methylpiperazin-1-yl)-9-chloro-10-(2,4-difluorophenyl)-2,2-dimethyl-2,3-dihydro-5H-[1,4]thiazino[2,3,4-ij]quinazolin-5-one] | – | – | 86.8 |
| C=CC(=O)N1CCN(c2nc(=O)n3c4c(c(-c5ccc(F)cc5F)c(Cl)cc24)SCC3)C[C@H]1C#N [Example 77, (2S)-1-acryloyl-4-(9-chloro-10-(2,4-difluorophenyl)-5-oxo-2,3-dihydro-5H-[1,4]thiazino[2,3,4-ij]quinazolin-7-yl)piperazine-2-carbonitrile] | – | – | 82 |
| C=C(F)C(=O)N1CCN(c2nc(=O)n3c4c(c(-c5ccc(Cl)c(F)c5)c(Cl)cc24)SCC3)[C@@H](C)C1 [Example 78, (S)-9-chloro-10-(4-chloro-3-fluorophenyl)-7-(4-(2-fluoroacryloyl)-2-methylpiperazin-1-yl)-2,3-dihydro-5H-[1,4]thiazino[2,3,4-ij]quinazolin-3-one] | – | – | 6.7 |
| C[C@H]1CN(C(=O)/C=C/C(F)(F)F)CCN1c1nc(=O)n2c3c(c(-c4ccc(Cl)c(F)c4)c(Cl)cc13)SCC2 [Example 79, (S,E)-9-chloro-10-(4-chloro-3-fluorophenyl)-7-(2-methyl-4-(4,4,4-trifluorobut-2-enoyl)piperazin-1-yl)-2,3-dihydro-5H-[1,4]thiazino[2,3,4-ij]quinazolin-5-one] | – | – | 92 |
| C[C@H]1CN(C(=O)/C=C/C(F)F)CCN1c1nc(=O)n2c3c(c(-c4ccc(Cl)c(F)c4)c(Cl)cc13)SCC2 [Example 80, (S,E)-9-chloro-10-(4-chloro-3-fluorophenyl)-7-(4-(4,4-difluorobut-2-enoyl)-2-methylpiperazin-1-yl)-2,3-dihydro-5H-[1,4]thiazino[2,3,4-ij]quinazolin-5-one] | – | – | 93.5 |
| N#CC[C@H]1CN(c2nc(=O)n3c4c(c(-c5ccc(F)cc5F)c(Cl)cc24)SCC3)CCN1C(=O)/C=C/C(F)(F)F [Example 81, 2-((2S)-4-(9-chloro-10-(2,4-difluorophenyl)-5-oxo-2,3-dihydro-5H-[1,4]thiazino[2,3,4-ij]quinazolin-7-yl)-1-((E)-4,4,4-trifluorobut-2-enoyl)piperazin-2-yl)acetonitrile] | – | – | 89 |

From patent publication US20230107642A1 (Erasca, Inc., priority 2020, published 2023)
